Legend:
[1] = target: T1, Transcription intermediary factor 1-alpha (Homo sapiens, UniProt O15164); experiment: Inhibition of recombinant TRIM24 (unknown origin) using biotinylated H3 peptide (H3K9me3K18ac) by AlphaScreen assay
T1 sequence (O15164 whole entry): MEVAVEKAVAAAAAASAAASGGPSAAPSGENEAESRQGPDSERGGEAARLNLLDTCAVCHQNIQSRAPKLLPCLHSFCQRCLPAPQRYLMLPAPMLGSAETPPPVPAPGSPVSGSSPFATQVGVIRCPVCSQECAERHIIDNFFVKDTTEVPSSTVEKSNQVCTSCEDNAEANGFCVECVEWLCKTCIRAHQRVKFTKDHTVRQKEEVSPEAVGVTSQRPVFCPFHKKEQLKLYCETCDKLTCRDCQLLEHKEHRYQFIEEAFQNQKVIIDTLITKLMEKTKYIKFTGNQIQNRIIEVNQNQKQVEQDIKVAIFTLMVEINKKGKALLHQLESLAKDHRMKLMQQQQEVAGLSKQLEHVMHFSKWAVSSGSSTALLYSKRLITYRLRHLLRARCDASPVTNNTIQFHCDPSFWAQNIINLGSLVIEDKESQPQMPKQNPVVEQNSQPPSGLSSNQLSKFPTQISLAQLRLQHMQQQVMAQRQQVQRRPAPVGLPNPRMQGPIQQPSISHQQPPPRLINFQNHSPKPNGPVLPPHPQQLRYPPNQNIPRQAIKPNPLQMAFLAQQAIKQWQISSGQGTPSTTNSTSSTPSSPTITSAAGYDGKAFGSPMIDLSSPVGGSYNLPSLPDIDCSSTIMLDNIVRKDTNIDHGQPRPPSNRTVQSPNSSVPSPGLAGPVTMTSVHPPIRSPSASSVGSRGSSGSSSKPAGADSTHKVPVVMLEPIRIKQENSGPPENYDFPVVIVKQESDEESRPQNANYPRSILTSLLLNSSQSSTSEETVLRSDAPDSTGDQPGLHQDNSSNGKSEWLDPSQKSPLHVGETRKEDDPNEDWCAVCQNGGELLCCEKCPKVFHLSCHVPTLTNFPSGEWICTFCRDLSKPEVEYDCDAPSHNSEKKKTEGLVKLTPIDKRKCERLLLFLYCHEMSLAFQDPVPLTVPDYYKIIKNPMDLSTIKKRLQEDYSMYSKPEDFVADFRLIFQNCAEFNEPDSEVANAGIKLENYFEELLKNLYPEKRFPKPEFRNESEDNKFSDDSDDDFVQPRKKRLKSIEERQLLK

[2] = target: T2, E3 ubiquitin-protein ligase TRIM33 (Homo sapiens, UniProt Q9UPN9); experiment: Inhibition of recombinant TRIM33 PHD bromodomain (unknown origin) using biotinylated H3 peptide (H3K9me3K18ac) by AlphaScreen assay
T2 sequence (Q9UPN9 whole entry): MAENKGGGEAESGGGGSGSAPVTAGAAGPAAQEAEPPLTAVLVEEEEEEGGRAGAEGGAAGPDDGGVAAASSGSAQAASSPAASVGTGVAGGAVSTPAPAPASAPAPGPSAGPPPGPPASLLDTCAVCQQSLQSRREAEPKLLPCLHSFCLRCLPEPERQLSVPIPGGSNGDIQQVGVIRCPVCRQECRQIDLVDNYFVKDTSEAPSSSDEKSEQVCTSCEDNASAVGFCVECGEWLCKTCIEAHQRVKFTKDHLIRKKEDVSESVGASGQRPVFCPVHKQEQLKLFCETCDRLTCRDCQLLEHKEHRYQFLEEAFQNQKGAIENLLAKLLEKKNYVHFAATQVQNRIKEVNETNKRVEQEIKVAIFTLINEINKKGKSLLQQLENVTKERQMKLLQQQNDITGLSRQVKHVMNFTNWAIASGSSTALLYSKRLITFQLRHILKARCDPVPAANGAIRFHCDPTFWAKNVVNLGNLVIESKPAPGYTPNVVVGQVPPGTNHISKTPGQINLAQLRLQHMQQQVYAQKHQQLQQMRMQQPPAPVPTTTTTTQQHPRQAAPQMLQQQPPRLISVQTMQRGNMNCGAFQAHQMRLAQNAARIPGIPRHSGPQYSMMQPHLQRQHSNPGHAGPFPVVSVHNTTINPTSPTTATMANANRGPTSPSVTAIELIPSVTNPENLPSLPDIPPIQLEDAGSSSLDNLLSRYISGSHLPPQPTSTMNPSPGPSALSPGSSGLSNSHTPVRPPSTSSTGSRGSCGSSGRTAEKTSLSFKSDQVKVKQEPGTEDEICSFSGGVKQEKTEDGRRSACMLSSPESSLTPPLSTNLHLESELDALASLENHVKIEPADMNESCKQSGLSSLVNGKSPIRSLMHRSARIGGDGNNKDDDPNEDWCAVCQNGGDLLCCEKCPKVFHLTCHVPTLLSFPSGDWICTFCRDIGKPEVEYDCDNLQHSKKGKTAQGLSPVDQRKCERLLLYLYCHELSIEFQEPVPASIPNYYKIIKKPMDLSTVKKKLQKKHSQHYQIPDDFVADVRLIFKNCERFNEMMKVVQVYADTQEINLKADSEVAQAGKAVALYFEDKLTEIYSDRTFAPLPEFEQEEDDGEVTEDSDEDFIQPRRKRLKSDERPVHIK

[3] = species: Homo sapiens; experiment: Selectivity index, ratio of IC50 for recombinant TRIM24 (unknown origin) to IC50 for recombinant TRIM33 PHD bromodomain (unknown origin)

| SMILES | IC50 [1] | IC50 [2] | Ratio IC50 [3] |
| --- | --- | --- | --- |
| Cc1nc[nH]c1-c1nc2cnccn2c1NC1CCCCC1 | 90.1 µM |  |  |
| COc1ccc(Nc2c(-c3ccc4nccn4c3)nc3ccc(Br)cn23)cc1 | 224 µM | 70.3 µM | 3.19 |
| O=C1CCCCCCC1 [CYCLOOCTANONE] | 0.166 µM | 0.25 µM |  |
| N#Cc1ccc(CNc2c(-c3ccc4nccn4c3)nc3cnccn23)cc1 | 818 µM | 46.1 µM | 17.7 |
| Cc1nc(-c2nc3cnccn3c2NCc2ccc(C#N)cc2)c[nH]1 | 54.8 µM | 207 µM | 0.26 |
| COc1cc(C=O)ccc1O [VANILLIN] | 0.162 µM | 0.326 µM |  |
| Cc1nc[nH]c1-c1nc2ccccn2c1NC1CCCCC1 | 9.03 µM | 1.07 µM |  |
| O=Cc1cccc(-c2ccc(C(=O)O)cc2)c1 | 0.165 µM | 0.336 µM |  |
| Cc1ncc(CO)c(C=O)c1O | 0.225 µM | 0.283 µM |  |
| Cc1nc(-c2nc3ccc(Br)cn3c2NCc2ccc(C#N)cc2)c[nH]1 | 81.7 µM | 11.3 µM | 7.21 |
| CCCOc1ccn2c(C(C)=O)cc(-c3nc4ccccn4c3NCCc3ccc(OC)c(OC)c3)c2c1 | 372 µM | 21.7 µM | 17.1 |
| COc1ccc(Nc2c(-c3c[nH]c(C)n3)nc3ccccn23)cc1 | 1.71 µM | 0.00319 µM | 538 |
| Cc1cccc2c(C=O)c[nH]c12 | 0.157 µM | 0.24 µM |  |
| Brc1ccc2nc(-c3ccc4nccn4c3)c(NCCN3CCOCC3)n2c1 | 1380 µM |  |  |
| N#Cc1ccc(CNc2c(-c3ccc4nccn4c3)nc3ccccn23)cc1 | 2080 µM | 87.4 µM | 23.8 |
| Cc1nc(-c2nc3ccccn3c2NCCN2CCOCC2)c[nH]1 | 242 µM | 27.8 µM | 8.73 |
| Brc1ccc2nc(-c3ccc4nccn4c3)c(NC3CCCCC3)n2c1 | 100 µM |  |  |
| CCCOc1ccn2c(C(C)=O)cc(-c3nc4cnccn4c3NC3CCCCC3)c2c1 |  | 80 µM |  |
| c1cn2c(NC3CCCCC3)c(-c3ccc4nccn4c3)nc2cn1 | 320 µM | 169 µM |  |
| Cn1cccc1C=O | 0.18 µM | 0.305 µM |  |
| c1ccn2c(NCCN3CCOCC3)c(-c3ccc4nccn4c3)nc2c1 |  | 366 µM | 48.4 |
| COc1ccc(CCNc2c(-c3ccc4nccn4c3)nc3cnccn23)cc1OC |  | 29.7 µM | 1.9 |
| COc1ccc(C=O)c(O)c1 | 0.22 µM | 0.301 µM |  |
| O=Cc1ccccc1O | 0.221 µM | 0.299 µM |  |
| Cc1nc(-c2nc3cnccn3c2NC2CCCCC2)c[nH]1 | 186 µM | 415 µM |  |
| O=Cc1ccc(N2CCCC2)cc1 | 0.133 µM | 0.269 µM |  |
| COc1ccc(Nc2c(-c3c[nH]c(C)n3)nc3cnccn23)cc1 | 385 µM | 153 µM |  |
| O=Cc1cccnc1Br | 7.86 µM | 5.48 µM |  |
| O=C1CCCC1 [CYCLOPENTANONE] | 0.136 µM | 0.234 µM |  |
| CCCOc1ccn2c(C(C)=O)cc(-c3nc4ccccn4c3NCc3ccc(C#N)cc3)c2c1 |  | 46.3 µM |  |

Second part, the compound after the results:

| IC50 [1] | IC50 [2] | Ratio IC50 [3] | SMILES |
| --- | --- | --- | --- |
| 2880 µM |  |  | CCCOc1ccn2c(C(C)=O)cc(-c3nc4ccc(C(=O)OC)cn4c3NCCOC)c2c1 |
| 42.8 µM | 16.4 µM | 2.61 | Cc1[nH]cnc1-c1nc2ccccn2c1NCc1ccc(C#N)cc1 |
| 4.07 µM | 10.5 to 56.9 µM |  | COCCNc1c(-c2c[nH]c(C)n2)nc2ccc(C(=O)OC)cn12 |
| 44.4 µM |  |  | COc1ccc(CCNc2c(-c3c[nH]c(C)n3)nc3ccccn23)cc1OC |
| 77.2 µM | 19.3 µM | 3.99 | COC(=O)c1ccc2nc(-c3nc[nH]c3C)c(Nc3ccc(OC)cc3)n2c1 |
|  | 650 µM |  | COC(=O)c1ccc2nc(-c3c[nH]c(C)n3)c(NCc3ccc(C#N)cc3)n2c1 |
| 141 µM | 17.2 µM | 8.16 | COCCNc1c(-c2c[nH]c(C)n2)nc2ccccn12 |
| 1040 µM | 95.6 µM | 10.9 | CCCOc1ccn2c(C(C)=O)cc(-c3nc4ccc(C(=O)OC)cn4c3NCCN3CCOCC3)c2c1 |
| 5800 µM | 139 µM | 41.7 | COCCNc1c(-c2ccc3nccn3c2)nc2ccccn12 |
| 511 µM |  |  | COCCNc1c(-c2nc[nH]c2C)nc2ccc(C(=O)OC)cn12 |
|  | 65.1 µM | 515 | CCCOc1ccn2c(C(C)=O)cc(-c3nc4ccc(C(=O)OC)cn4c3NCc3ccc(C#N)cc3)c2c1 |
|  | 204 µM | 115 | COCCNc1c(-c2nc[nH]c2C)nc2cnccn12 |
| 243 µM | 7.88 µM | 30.8 | COCCNc1c(-c2c[nH]c(C)n2)nc2ccc(Br)cn12 |
| 377 µM |  |  | COC(=O)c1ccc2nc(-c3nc[nH]c3C)c(NCCc3ccc(OC)c(OC)c3)n2c1 |
|  |  | 8.45 | Cc1[nH]cnc1-c1nc2ccccn2c1NC1CCCCC1 |
| 63.5 µM |  |  | COc1ccc(CCNc2c(-c3c[nH]c(C)n3)nc3ccc(Br)cn23)cc1OC |

| IC50 [1] | IC50 [2] | Ratio IC50 [3] | SMILES |
| --- | --- | --- | --- |
| 5650 µM |  |  | CCCOc1ccn2c(C(C)=O)cc(-c3nc4ccc(C(=O)OC)cn4c3NCCc3ccc(OC)c(OC)c3)c2c1 |
| 1510 µM |  |  | COc1ccc(CCNc2c(-c3ccc4nccn4c3)nc3ccccn23)cc1OC |
| 117 µM |  |  | Cc1[nH]cnc1-c1nc2ccc(Br)cn2c1NCCN1CCOCC1 |
| 502 µM | 42.6 µM |  | COC(=O)c1ccc2nc(-c3ccc4nccn4c3)c(NC3CCCCC3)n2c1 |
|  |  | 13.3 | Cc1[nH]cnc1-c1nc2ccccn2c1NCCN1CCOCC1 |
| 255 µM |  |  | CCCOc1ccn2c(C(C)=O)cc(-c3nc4ccc(C(=O)OC)cn4c3NC3CCCCC3)c2c1 |
|  | 125 µM | 486 | COC(=O)c1ccc2nc(-c3ccc4nccn4c3)c(NCc3ccc(C#N)cc3)n2c1 |
| 700 µM | 303 µM |  | COC(=O)c1ccc2nc(-c3ccc4nccn4c3)c(NCCN3CCOCC3)n2c1 |
| 2.59 µM | 0.0137 µM |  | COc1ccc(Nc2c(-c3[nH]cnc3C)nc3ccc(Br)cn23)cc1 |
|  |  | 189 | COc1ccc(Nc2c(-c3nc[nH]c3C)nc3ccc(Br)cn23)cc1 |
| 28.9 µM |  |  | COc1ccc(CCNc2c(-c3nc[nH]c3C)nc3ccc(Br)cn23)cc1OC |
| 143 µM |  |  | COC(=O)c1ccc2nc(-c3nc[nH]c3C)c(NC3CCCCC3)n2c1 |
|  |  | 5.35 | COc1ccc(Nc2c(-c3nc[nH]c3C)nc3ccccn23)cc1 |
| 2850 µM |  |  | CCCOc1ccn2c(C(C)=O)cc(-c3nc4cnccn4c3NCCOC)c2c1 |
| 134 µM |  |  | COCCNc1c(-c2nc[nH]c2C)nc2ccc(Br)cn12 |
|  |  | 11.8 | COC(=O)c1ccc2nc(-c3nc[nH]c3C)c(NCCN3CCOCC3)n2c1 |

Source: ChEMBL document CHEMBL4418499, “Inhibitors of trim33 and methods of use” (2018)
